# Test results from patent US6399641B1, “2H-tetrazole-amide compounds with therapeutic activity as metabotropic glutamate receptor agonists” (Hoffmann-la Roche Inc., priority 2000, dated 2002).
# What was measured:
# rat mGlu1a receptor = target: T1, rat mGlu1a receptor (Rattus norvegicus, UniProt P23385); assay: [Ca2+]i measurement (FLIPR) on mGlu1a transfected EBNA cells; type: cell-based; details: agonist activity, rat mGlu1a transiently transfected EBNA cells, Fluo-3 AM
# T1 construct: expressed in transfected cells; host or cells: EBNA cells (transient transfection)
# T1 sequence (P23385 19-1199): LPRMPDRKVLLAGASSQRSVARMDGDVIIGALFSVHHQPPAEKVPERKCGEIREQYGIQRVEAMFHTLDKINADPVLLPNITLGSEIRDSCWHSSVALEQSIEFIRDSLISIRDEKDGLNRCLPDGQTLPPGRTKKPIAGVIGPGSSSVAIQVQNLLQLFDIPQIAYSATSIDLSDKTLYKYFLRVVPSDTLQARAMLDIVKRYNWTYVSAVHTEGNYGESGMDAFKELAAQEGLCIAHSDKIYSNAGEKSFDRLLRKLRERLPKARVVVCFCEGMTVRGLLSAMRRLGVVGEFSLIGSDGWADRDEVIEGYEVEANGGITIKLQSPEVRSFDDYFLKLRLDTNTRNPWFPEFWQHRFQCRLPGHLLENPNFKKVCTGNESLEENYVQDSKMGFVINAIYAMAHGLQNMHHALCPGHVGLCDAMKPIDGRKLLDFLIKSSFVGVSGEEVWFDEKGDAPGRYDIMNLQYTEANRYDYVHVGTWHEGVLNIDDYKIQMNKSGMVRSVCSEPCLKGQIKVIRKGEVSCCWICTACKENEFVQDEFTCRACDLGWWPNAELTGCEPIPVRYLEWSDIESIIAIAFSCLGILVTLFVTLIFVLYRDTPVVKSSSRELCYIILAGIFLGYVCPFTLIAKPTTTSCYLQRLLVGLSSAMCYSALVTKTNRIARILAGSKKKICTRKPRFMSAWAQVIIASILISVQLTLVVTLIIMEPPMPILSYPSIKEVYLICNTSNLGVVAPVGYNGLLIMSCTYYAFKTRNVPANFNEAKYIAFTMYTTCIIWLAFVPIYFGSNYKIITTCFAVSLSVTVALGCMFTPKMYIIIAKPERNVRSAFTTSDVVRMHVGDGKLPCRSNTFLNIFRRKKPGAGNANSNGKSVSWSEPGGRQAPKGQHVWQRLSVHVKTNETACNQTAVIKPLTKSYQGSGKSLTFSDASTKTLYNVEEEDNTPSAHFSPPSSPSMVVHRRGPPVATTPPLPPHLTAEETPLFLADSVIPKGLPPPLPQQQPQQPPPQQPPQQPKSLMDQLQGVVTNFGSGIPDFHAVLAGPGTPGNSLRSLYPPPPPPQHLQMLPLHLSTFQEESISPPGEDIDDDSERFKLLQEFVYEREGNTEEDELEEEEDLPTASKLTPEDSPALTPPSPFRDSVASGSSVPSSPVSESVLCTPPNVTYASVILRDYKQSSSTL
# Experimental: cDNA encoding for rat mGlu1a receptor obtained from Prof. S. Nakanishi (Kyoto, Japan) was transiently transfected into EBNA cells using a procedure described by Schlaeger & Christensen, 1998. [Ca^2+]i measurement were performed on mGlu1a transfected EBNA cells after incubation of the cells with Fluo-3 AM (0.5 μM final concentration) for 1 hour at 37° C. followed by 4 washes with assay buffer (DMEM supplemented with Hank's salt and 20 mM HEPES). [Ca^2+]i measurement were done using a fluorometric imaging plate reader (FLIPR, Molecular Devices Corporation, La Jolla, Calif., USA). When compounds were evaluated as antagonists they were tested against 10 μM glutamate as agonist.
# The inhibition (antagonists) or activation (agonists) curves were fitted with a four parameter logistic equation giving EC50, IC50 and Hill coefficient using the iterative non linear curve fitting software Origin (Microcal Software Inc., Northampton, Mass., USA). E.-J. Schlaeger and K. Christensen Transient gene expression in mammalian cells grown in serum-free suspension culture. Cytotechnology, 30:71-83, 1999.
Compound,melting point,EC50 (rat mGlu1a receptor) [nM]
"O=C(Nc1nnn(C(F)F)n1)C(c1ccccc1)c1ccccc1 [Example 17, N-(2-Difluoromethyl-2H-tetrazol-5-yl)-2,2-diphenyl-acetamide]",143 to 145 °C,–
"Cn1nnc(NC(=O)C2c3ccccc3Oc3ccccc32)n1 [Example 2, 9-Xanthene-9-carboxylic acid (2-methyl-2H-tetrazol-5-yl)-amide]",247 °C (dec.),180
"CC(C)n1nnc(NC(=O)C2c3ccccc3Oc3ccccc32)n1 [Example 8, 9H-Xanthene-9-carboxylic acid (2-isopropyl-2H-tetrazol-5-yl)-amide]",–,45
"CCCn1nnc(NC(=O)C2c3ccccc3Oc3ccccc32)n1 [Example 12, 9H-Xanthene-9-carboxylic acid (2-propyl-2H-tetrazol-5-yl)-amide]",208 to 209 °C,–
"CCn1nnc(NC(=O)C(c2ccccc2)c2ccccc2)n1 [Example 3, N-(2-Ethyl-2H-tetrazol-5-yl)-2,2-diphenyl-acetamide]",169 to 170 °C,–
"O=C(Nc1nnn(CC2CC2)n1)C1c2ccccc2Oc2ccccc21 [Example 6, 9H-Xanthene-9-carboxylic acid (2-cyclopropylmethyl-2H-tetrazol-5-yl)-amide]",222 to 224 °C,–
"COCn1nnc(NC(=O)C2c3ccccc3Oc3ccccc32)n1 [Example 14, 9H-Xanthene-9-carboxylic acid (2-methoxymethyl-2H-tetrazol-5-yl)-amide]",221 to 222 °C,–
"O=C(Nc1nnn(CC(F)(F)F)n1)C(c1ccccc1)c1ccccc1 [Example 9, 2,2-Diphenyl-N-[2-(2,2,2-trifluoro-ethyl)-2H-tetrazol-5-yl]-acetamide]",146 to 148 °C,2000
"Cn1nnc(NC(=O)C(c2ccccc2)c2ccccc2)n1 [Example 1, N-(2-Methyl-2H-tetrazol-5-yl)-2,2-diphenyl-acetamide]",218 °C (dec.),220
"CC(C)n1nnc(NC(=O)C(c2ccccc2)c2ccccc2)n1 [Example 7, N-(2-Isopropyl-2H-tetrazol-5-yl)-2,2-diphenyl-acetamide]",175 to 177 °C,100
"COCn1nnc(NC(=O)C(c2ccccc2)c2ccccc2)n1 [Example 13, N-(2-Methoxymethyl-2H-tetrazol-5-yl)-2,2-diphenyl-acetamide]",127 to 128 °C,–
"CCCn1nnc(NC(=O)C(c2ccccc2)c2ccccc2)n1 [Example 11, 2,2-Diphenyl-N-(2-propyl-2H-tetrazol-5-yl)-acetamide]",124 to 125 °C,–
"O=C(Nc1nnn(CC(F)(F)F)n1)C1c2ccccc2Oc2ccccc21 [Example 10, 9H-Xanthene-9-carboxylic acid [2-(2,2,2-trifluoro-ethyl)-2H-tetrazol-5-yl]-amide]",209 to 210 °C,170
"O=C(Nc1nnn(C(F)F)n1)C1c2ccccc2Oc2ccccc21 [Example 18, 9H-Xanthene-9-carboxylic acid (2-difluoromethyl-2H-tetrazol-5-yl)-amide]",168 to 169 °C,–
"CC(C)(C)n1nnc(NC(=O)C(c2ccccc2)c2ccccc2)n1 [Example 15, N-(2-tert-Butyl-2H-tetrazol-5-yl)-2,2-diphenyl-acetamide]",191 to 192 °C,–
"CC(C)(C)n1nnc(NC(=O)C2c3ccccc3Oc3ccccc32)n1 [Example 16, 9H-Xanthene-9-carboxylic acid (2-tert-butyl-2H-tetrazol-5-yl)-amide]",230 to 231 °C,–
"CCn1nnc(NC(=O)C2c3ccccc3Oc3ccccc32)n1 [Example 4, 9H-Xanthene-9-carboxylic acid (2-ethyl-2H-tetrazol-5-yl)-amide]",228 °C (dec.),–
"O=C(Nc1nnn(CC2CC2)n1)C(c1ccccc1)c1ccccc1 [Example 5, N-(2-Cyclopropylmethyl-2H-tetrazol-5-yl)-2,2-diphenyl-acetamide]",147 to 148 °C,–

# The next lines start with the values.
melting point,EC50 (rat mGlu1a receptor) [nM],Compound
243 to 244 °C,–,"COC(=O)Cn1nnc(NC(=O)C2c3ccccc3Oc3ccccc32)n1 [Example 22, {5-[(9H-Xanthene-9-carbonyl)-amino]-tetrazol-2-yl}-acetic acid methyl ester]"
173 to 174 °C,–,"N#CCn1nnc(NC(=O)C(c2ccccc2)c2ccccc2)n1 [Example 19, N-(2-Cyanomethyl-2H-tetrazol-5-yl)-2,2-diphenyl-acetamide]"
208 to 210 °C (dec.),190,"CCn1nnc(NC(=O)C2c3ccccc3Oc3ccc(OC)cc32)n1 (racemic) [Example 27, (RS)-2-Methoxy-9H-xanthene-9-carboxylic acid (2-ethyl-2H-tetrazol-5-yl)-amide]"
259 to 260 °C (dec.),–,"CCn1nnc(NC(=O)C2c3ccccc3Oc3cccc(OC)c32)n1 (racemic) [Example 26, (RS)-1-Methoxy-9H-xanthene-9-carboxylic acid (2-ethyl-2H-tetrazol-5-yl)-amide]"
–,1390,9H-Thioxanthene-9-carboxylic acid (2-ethyl-2H-tetrazol-5-yl)-amide [Example 25]
204 to 205 °C,–,"N#CCn1nnc(NC(=O)C2c3ccccc3Oc3ccccc32)n1 [Example 20, 9H-Xanthene-9-carboxylic acid (2-cyanomethyl-2H-tetrazol-5-yl)-amide]"
158 to 159 °C,470,"CCn1nnc(NC(=O)C2c3ccccc3COc3ccccc32)n1 (racemic) [Example 24, (RS)-6,11 -Dihydro-dibenzo[b,e]oxepine-11-carboxylic acid (2-ethyl-2H-tetrazol-5-yl)-amide]"
239 to 240 °C (dec.),–,"CCn1nnc(NC(=O)C2c3ccccc3Oc3c(OC)cccc32)n1 (racemic) [Example 28, (RS)-4-Methoxy-9H-xanthene-9-carboxylic acid (2-ethyl-2H-tetrazol-5-yl)-amide]"
168 to 169 °C,–,"COC(=O)Cn1nnc(NC(=O)C(c2ccccc2)c2ccccc2)n1 [Example 21, (5-Diphenylacetylamino-tetrazol-2-yl)-acetic acid methyl ester]"
206 to 207 °C,–,"CCn1nnc(NC(=O)C2c3ccccc3Cc3ccccc32)n1 [Example 23, 9,10-Dihydro-anthracene-9-carboxylic acid (2-ethyl-2H-tetrazol-5-yl)-amide]"
